This note sets out measurements from US20110027846A1, “CONTROL OF BACTERIA IN FERMENTATION PROCESSES” (priority 2007, published 2011).

One experiment has as its system bacteria. Description: bacteria level on PCA medium after biocide contact (Comparative Example 3). It is filed as cell-based. Particulars: PCT medium, 2 hours after contact; biocide concentration 50 ppm. The text has this:
(§1) A comparison is done to show the effect of four different biocides on yeast level and bacteria level in various media and at various points relative to introduction of the biocide. SDA medium is synthetic defined agar, and PCA medium is plate count agar. Dow Antimicrobial™ 7287 is a composition containing 20 percent 2,2-dibromo-3-nitrilopropionamide (DBNPA), sold by The Dow Chemical Company.

In another experiment the test system is yeast. Description: yeast level on SDA medium after biocide contact (Comparative Example 3). Format: cell-based. Particulars: 2 hours after contact, biocide concentration 50 ppm.
Source text: as §1

For the substance Diethyl Carbamate, the Bacteria level with bacteria is on record as 2.6 × 10^7 cfu/ml. Moreover, the Yeast level in the experiment on yeast is <1.0 × 10^4 cfu/ml.
